# Legend:
# [1] = Permeability of the compound from apical to basolateral side in human Caco2 cells; assay type: ADME, cell-based; conditions: Caco-2, read-out: permeability
# [2] = Volume of distribution at steady state in Sprague-Dawley rat at 0.55 mg/kg, iv or 1.09 mg/kg, po administered as cassette dose by LC-MS/MS analysis; assay type: ADME, organism-based; conditions: in vivo, read-out: Vdss
# [3] = Permeability of the compound from basolateral to apical side in human Caco2 cells; assay type: ADME, cell-based; conditions: Caco-2, read-out: permeability
# [4] = AUC in Sprague-Dawley rat at 0.55 mg/kg, iv or 1.09 mg/kg, po by LC-MS/MS analysis; assay type: ADME, organism-based; conditions: in vivo
# [5] = Half life in Sprague-Dawley rat at 0.55 mg/kg, iv or 1.09 mg/kg, po administered as cassette dose by LC-MS/MS analysis; assay type: ADME, organism-based; conditions: in vivo
# [6] = Oral bioavailability in Sprague-Dawley rat at 1.09 mg/kg administered as cassette dose by LC-MS/MS analysis; assay type: ADME, organism-based; conditions: in vivo
# [7] = Clearance in Sprague-Dawley rat at 0.55 mg/kg, iv or 1.09 mg/kg, po administered as cassette dose by LC-MS/MS analysis; assay type: ADME, organism-based; conditions: in vivo
# Plasma = test: Anticoagulant activity in human platelet rich plasma assessed as plasma concentration required for 50% increase in clotting time by aPTT assay; assay type: functional
# Coagulation factor XI = Coagulation factor XI (Homo sapiens, UniProt P03951); test: Inhibition of human Factor XIa using S-2366 as chromogenic substrate after 60 mins by Lineweaver-Burk plot analysis
# Coagulation factor XI, sequence (P03951 19-387 limits assumed): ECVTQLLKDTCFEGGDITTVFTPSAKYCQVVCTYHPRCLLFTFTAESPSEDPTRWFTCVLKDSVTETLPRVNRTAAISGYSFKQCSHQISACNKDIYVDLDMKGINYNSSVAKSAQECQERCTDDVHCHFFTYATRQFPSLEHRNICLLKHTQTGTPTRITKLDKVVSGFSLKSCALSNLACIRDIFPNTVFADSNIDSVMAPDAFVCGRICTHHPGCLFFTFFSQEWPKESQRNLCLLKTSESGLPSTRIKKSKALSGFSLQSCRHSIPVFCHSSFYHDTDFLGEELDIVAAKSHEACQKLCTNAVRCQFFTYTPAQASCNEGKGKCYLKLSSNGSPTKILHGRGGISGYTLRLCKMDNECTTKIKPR
# Coagulation factor XI, sequence (P03951 388-625 limits assumed): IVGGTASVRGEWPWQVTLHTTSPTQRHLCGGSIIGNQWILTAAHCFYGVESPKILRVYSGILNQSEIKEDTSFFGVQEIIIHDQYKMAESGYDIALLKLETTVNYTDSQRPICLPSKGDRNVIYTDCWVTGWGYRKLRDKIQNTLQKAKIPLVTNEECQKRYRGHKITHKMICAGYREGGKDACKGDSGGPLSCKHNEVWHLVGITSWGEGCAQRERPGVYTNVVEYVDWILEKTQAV
# [8] = Half life in human liver microsomes; assay type: ADME, microsome
# [9] = Protein binding in human plasma; assay type: ADME, cell-free; conditions: read-out: PPB (converted)
# [10] = Volume of distribution at steady state in Sprague-Dawley rat at 0.75 mg/kg, iv or 1.5 mg/kg, po administered as cassette dose by LC-MS/MS analysis; assay type: ADME, organism-based; conditions: in vivo, read-out: Vdss
# [11] = Oral bioavailability in Sprague-Dawley rat at 1.5 mg/kg by LC-MS/MS analysis; assay type: ADME, organism-based; conditions: in vivo
# [12] = AUC in Sprague-Dawley rat at 0.75 mg/kg, iv or 1.5 mg/kg, po by LC-MS/MS analysis; assay type: ADME, organism-based; conditions: in vivo
# [13] = Clearance in Sprague-Dawley rat at 0.75 mg/kg, iv or 1.5 mg/kg, po administered as cassette dose by LC-MS/MS analysis; assay type: ADME, organism-based; conditions: in vivo
# [14] = Half life in Sprague-Dawley rat at 0.75 mg/kg, iv or 1.5 mg/kg, po administered as cassette dose by LC-MS/MS analysis; assay type: ADME, organism-based; conditions: in vivo
# [15] = Clearance in Sprague-Dawley rat at 0.55 mg/kg, iv or 1.11 mg/kg, po administered as cassette dose by LC-MS/MS analysis; assay type: ADME, organism-based; conditions: in vivo
# [16] = Half life in Sprague-Dawley rat at 0.55 mg/kg, iv or 1.11 mg/kg, po administered as cassette dose by LC-MS/MS analysis; assay type: ADME, organism-based; conditions: in vivo
# [17] = Oral bioavailability in Sprague-Dawley rat at 1.11 mg/kg by LC-MS/MS analysis; assay type: ADME, organism-based; conditions: in vivo
# [18] = Volume of distribution at steady state in Sprague-Dawley rat at 0.55 mg/kg, iv or 1.11 mg/kg, po administered as cassette dose by LC-MS/MS analysis; assay type: ADME, organism-based; conditions: in vivo, read-out: Vdss
# [19] = AUC in Sprague-Dawley rat at 0.55 mg/kg, iv or 1.11 mg/kg, po by LC-MS/MS analysis; assay type: ADME, organism-based; conditions: in vivo
SMILES,Ki (Coagulation factor XI),EC1.5 (Plasma),further results
COC(=O)Nc1ccc2c(c1)NC(=O)CC/C=C/C[C@H](NC(=O)/C=C/c1cc(Cl)ccc1-n1cnnn1)c1nc-2c(Cl)[nH]1,–,–,Papp A→B [1]: < 15 nm/s; Vd [2]: 0.4 L/kg; Papp B→A [3]: 58 nm/s; AUC [4]: 2 nM·h; half-life [5]: 42 min; bioavailability [6]: 0.2%; clearance [7]: 1.44 L/h/kg
COC(=O)Nc1ccc2c(c1)NC(=O)C[C@@H](C)CCC[C@H](NC(=O)/C=C/c1cc(Cl)ccc1-n1cnnn1)c1nc-2c[nH]1,–,1.1 µM,fraction unbound [9]: 0.02
COC(=O)Nc1ccc2c(c1)NC(=O)[C@@H](C)CCC[C@H](NC(=O)/C=C/c1cc(Cl)ccc1-n1cnnn1)c1nc-2c[nH]1,–,0.63 µM,–
COC(=O)Nc1ccc2c(c1)NC(=O)C[C@H](C)/C=C/C[C@H](NC(=O)/C=C/c1cc(Cl)ccc1-n1cnnn1)c1nc-2c[nH]1,2 nM,0.98 µM,–
CC[C@H]1CCC[C@H](NC(=O)/C=C/c2cc(Cl)ccc2-n2cnnn2)c2nc(c[nH]2)-c2ccc(NC(=O)OC)cc2NC1=O,–,4 µM,–
COC(=O)Nc1ccc2c(c1)NC(=O)[C@H](C)CCC[C@H](NC(=O)/C=C/c1cc(Cl)ccc1-n1cnnn1)c1nc-2c(Cl)[nH]1,0.07 nM,1.2 µM,–
CC[C@@H]1CCC[C@H](NC(=O)/C=C/c2cc(Cl)ccc2-n2cnnn2)c2nc(c[nH]2)-c2ccc(NC(=O)OC)cc2NC1=O,–,0.52 µM,–
COC(=O)Nc1ccc2c(c1)NC(=O)CCCCC[C@H](NC(=O)/C=C/c1cc(Cl)ccc1-n1cnnn1)c1nc-2c[nH]1,–,–,fraction unbound [9]: 0.038
COC(=O)Nc1ccc2c(c1)NC(=O)C[C@H](C)CCC[C@H](NC(=O)/C=C/c1cc(Cl)ccc1-n1cnnn1)c1nc-2c[nH]1,–,27 µM,–
COC(=O)Nc1ccc2c(c1)NC(=O)[C@H](C)CCC[C@H](NC(=O)/C=C/c1cc(Cl)ccc1-n1cnnn1)c1nc-2c[nH]1,–,0.39 µM,–
COC(=O)Nc1ccc2c(c1)NC(=O)[C@H](C(C)C)CCC[C@H](NC(=O)/C=C/c1cc(Cl)ccc1-n1cnnn1)c1nc-2c[nH]1,0.14 nM,1.1 µM,–
"COC(=O)Nc1ccc2c(c1)NC(=O)CCC(C)CC[C@H](NC(=O)/C=C/c1cc(Cl)ccc1-n1cnnn1)c1nc-2c[nH]1 (single isomer, unassigned; diastereomer A)",5.9 nM,2.5 µM,–
"COC(=O)Nc1ccc2c(c1)NC(=O)C(C)CCCC[C@H](NC(=O)/C=C/c1cc(Cl)ccc1-n1cnnn1)c1nc-2c[nH]1 (single isomer, unassigned; diastereomer A)",6.5 nM,5.3 µM,–
"COC(=O)Nc1ccc2c(c1)NC(=O)C(C)C/C=C/C[C@H](NC(=O)/C=C/c1cc(Cl)ccc1-n1cnnn1)c1nc-2c[nH]1 (single isomer, unassigned; diastereomer A)",0.33 nM,0.67 µM,–
"COC(=O)Nc1ccc2c(c1)NC(=O)CCC(C)CC[C@H](NC(=O)/C=C/c1cc(Cl)ccc1-n1cnnn1)c1nc-2c[nH]1 (single isomer, unassigned; diastereomer B)",18 nM,12 µM,–
"COC(=O)Nc1ccc2c(c1)NC(=O)CC(C)CC[C@H](NC(=O)/C=C/c1cc(Cl)ccc1-n1cnnn1)c1nc-2c[nH]1 (single isomer, unassigned; diastereomer B)",35 nM,31 µM,–

# Second part, led by results:
Ki (Coagulation factor XI),SMILES,EC1.5 (Plasma),further results
0.13 nM,COC(=O)Nc1ccc2c(c1)NC(=O)C[C@@H](C)/C=C/C[C@H](NC(=O)/C=C/c1cc(Cl)ccc1-n1cnnn1)c1nc-2c[nH]1,0.38 µM,–
44 nM,COC(=O)Nc1ccc2c(c1)NC(=O)C[C@@H](C)CCC[C@H](NC(=O)c1c(F)cc(C)cc1F)c1nc-2c(Cl)[nH]1,12 µM,Papp A→B [1]: 18 nm/s; Papp B→A [3]: 251 nm/s; half-life [8]: 45 min
10 nM,COC(=O)Nc1ccc2c(c1)NC(=O)[C@H](C)CCC[C@H](NC(=O)c1c(F)cc(C)cc1F)c1nc-2c(Cl)[nH]1,2 µM,Papp A→B [1]: < 15 nm/s; Papp B→A [3]: 111 nm/s; half-life [8]: 8 min
12 nM,COC(=O)Nc1ccc2c(c1)NC(=O)C[C@@H](C)/C=C/C[C@H](NC(=O)c1c(F)cc(C)cc1F)c1nc-2c(Cl)[nH]1,2.7 µM,Vd [10]: 0.3 L/kg; Papp A→B [1]: < 15 nm/s; bioavailability [11]: 16%; Papp B→A [3]: 189 nm/s; AUC [12]: 991 nM·h; clearance [13]: 0.36 L/h/kg; half-life [14]: 54 min; half-life [8]: 35 min
21 nM,COC(=O)Nc1ccc2c(c1)NC(=O)[C@@H](C(C)C)CCC[C@H](NC(=O)/C=C/c1cc(Cl)ccc1-n1cnnn1)c1nc-2c[nH]1,64 µM,–
0.06 nM,COC(=O)Nc1ccc2c(c1)NC(=O)C[C@@H](C)CCC[C@H](NC(=O)/C=C/c1cc(Cl)ccc1-n1cnnn1)c1nc-2c(Cl)[nH]1,0.57 µM,–
16 nM,COC(=O)Nc1ccc2c(c1)NC(=O)CC/C=C/C[C@H](NC(=O)c1c(F)cc(C)cc1F)c1nc-2c(Cl)[nH]1,6.6 µM,Papp A→B [1]: < 15 nm/s; Papp B→A [3]: 200 nm/s; clearance [15]: 0.336 L/h/kg; half-life [16]: 54 min; bioavailability [17]: 41%; Vd [18]: 0.4 L/kg; half-life [8]: 17 min; AUC [19]: 2080 nM·h
36 nM,"COC(=O)Nc1ccc2c(c1)NC(=O)CC(C)CC[C@H](NC(=O)/C=C/c1cc(Cl)ccc1-n1cnnn1)c1nc-2c[nH]1 (single isomer, unassigned; diastereomer A)",37 µM,–
31 nM,"COC(=O)Nc1ccc2c(c1)NC(=O)C(C)CCCC[C@H](NC(=O)/C=C/c1cc(Cl)ccc1-n1cnnn1)c1nc-2c[nH]1 (single isomer, unassigned; diastereomer B)",32 µM,–
2.7 nM,"COC(=O)Nc1ccc2c(c1)NC(=O)C(C)C/C=C/C[C@H](NC(=O)/C=C/c1cc(Cl)ccc1-n1cnnn1)c1nc-2c[nH]1 (single isomer, unassigned; diastereomer B)",1.2 µM,–
